The values below come from patent US12258337B2, “Bicyclic CX3CR1 receptor agonists” (Board of Regents, The University of Texas System, priority 2019, dated 2025).

Holding throughout (assay type): cell-based
Experiment [1] has as its target T1, mCX3CR1 (Mus musculus, UniProt Q9Z0D9).
T1 construct: expressed in transfected cells; stably expresses a Ca2+ sensitive photo-protein
T1 sequence (Q9Z0D9 1-354): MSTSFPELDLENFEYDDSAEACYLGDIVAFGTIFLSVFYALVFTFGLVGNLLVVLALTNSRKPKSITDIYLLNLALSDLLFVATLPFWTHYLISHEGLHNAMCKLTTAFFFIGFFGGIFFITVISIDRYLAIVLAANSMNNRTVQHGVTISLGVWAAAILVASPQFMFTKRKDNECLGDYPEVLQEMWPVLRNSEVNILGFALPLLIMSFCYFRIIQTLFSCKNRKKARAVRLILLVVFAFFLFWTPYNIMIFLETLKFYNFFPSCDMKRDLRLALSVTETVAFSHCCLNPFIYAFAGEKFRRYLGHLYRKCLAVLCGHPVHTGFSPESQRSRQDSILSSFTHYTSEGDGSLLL
Briefly: Ga16 assay, CX3CR1 agonism, Ca2+ sensitive photo-protein readout (FLIPRTETRA). The settings on record: mouse CX3CR1 cell line. A digest of the protocol:
(§1)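 Cells expressing human, mouse or rat CX3CR1 with a stably expressed Ca2+-sensitive photoprotein were loaded with 10 μM coelenterazine in tyrode buffer pH 7.4 for 3 h at room temperature. Agonist-mode luminescence kinetics were recorded for 90 s after compound injection on FLIPRTETRA. Dose-response runs were done in quadruplicate, with fractalkine as the reference agonist.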

Experiment [2] has as its target T2, rCX3CR1 (Rattus norvegicus, UniProt P35411).
T2 construct: expressed in transfected cells; stably expresses a Ca2+ sensitive photo-protein
T2 sequence (P35411 1-354): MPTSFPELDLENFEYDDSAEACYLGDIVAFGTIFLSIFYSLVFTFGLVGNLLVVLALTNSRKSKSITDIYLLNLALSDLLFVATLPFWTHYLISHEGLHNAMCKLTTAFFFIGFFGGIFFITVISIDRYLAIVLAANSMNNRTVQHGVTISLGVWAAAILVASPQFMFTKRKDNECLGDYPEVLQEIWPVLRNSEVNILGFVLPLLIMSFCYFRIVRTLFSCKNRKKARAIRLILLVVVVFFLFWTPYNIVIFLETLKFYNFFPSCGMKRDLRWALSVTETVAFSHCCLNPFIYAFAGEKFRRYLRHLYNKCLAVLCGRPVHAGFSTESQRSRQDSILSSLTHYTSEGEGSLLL
The description is as above. The settings on record: rat CX3CR1 cell line. The method, boiled down: as §1

Experiment [3] has as its target T3, hCX3CR1 (Homo sapiens, UniProt P49238).
T3 sequence (P49238 1-355): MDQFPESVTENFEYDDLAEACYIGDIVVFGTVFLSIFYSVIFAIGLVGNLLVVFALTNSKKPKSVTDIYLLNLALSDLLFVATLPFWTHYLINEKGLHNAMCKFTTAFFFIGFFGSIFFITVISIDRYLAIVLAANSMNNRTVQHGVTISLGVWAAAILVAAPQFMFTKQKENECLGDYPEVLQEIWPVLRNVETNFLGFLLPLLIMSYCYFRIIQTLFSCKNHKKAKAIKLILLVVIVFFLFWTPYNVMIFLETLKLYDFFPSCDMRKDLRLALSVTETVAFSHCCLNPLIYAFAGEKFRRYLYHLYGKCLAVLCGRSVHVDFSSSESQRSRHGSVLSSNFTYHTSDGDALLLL
The experiment is described as above. Also on record: expressed in transfected cells; stably expresses a Ca2+ sensitive photo-protein. The settings on record: human CX3CR1 cell line. The method, boiled down: as §1

Experiment [4] addresses T3, hCX3CR1. Briefly: ChAMPion assay (CHO ChAMPion/CX3CR1 K1.6, cAMP/CNG channel, photoprotein luminescence). On the set-up: expressed in transfected cells; stably expresses a Ca2+ sensitive photo-protein. Conditions: ChAMPion assay, CHO ChAMPion/CX3CR1 K1.6, Forskolin 3 μM; read-out: hCX3CR1 agonism EC50. Here is the method: Buffers and reagents. PBS (D-PBS without calcium and magnesium; EuroClone); Trypsin (Trypsin 0.05%, EDTA 0.02% in PBS; EuroClone); DMSO (Sigma); Tyrode buffer Ca^2+ free: in-house solution (130 mM NaCl, 5 mM KCl, 1 mM MgCl^2, 5 mM NaHCO3, 20 mM HEPES (pH 7.4); sterile filtered and autoclaved); Tyrode buffer 10 mM Ca^2+: in-house solution (130 mM NaCl, 5 mM KCl, 10 mM CaCl2), 1 mM MgCl2, 5 mM NaHCO3, 20 mM HEPES, in water at pH 7.4, sterile filtered); Coelenterazine, native (Biosynth); stock 10 mM; Agonist: Recombinant Human Fractalkine (CX3CL1) (PeproTech); stock: 10 μM in standard Tyrode buffer/BSA 01%; stored at −20° C.
Cell line. The final clone for the hCX3CR1 assay was CHO ChAMPion/CX3CR1 K1.6. ChAMPion technology is based on the co-expression of a Ca^2+ sensitive photoprotein and of a cyclic nucleotide-gated (CNG) channel acting as a cAMP biosensor in a CHO-K1 cell line. CNG channels are non-selective ligand gated cation channels that can be opened by the direct interaction with either cAMP or cGMP, at the intracellular C-terminus site of the channel. Channel opening allows the flux of extracellular calcium into the cell cytoplasm and its transient elevation can be recorded by means of several different calcium indicators. In the chAMPion system, the CNG channel has been modified to display sensitivity to cAMP levels in the physiological range. In addition the calcium influx through the opened channel is immediately detected by the recording of the photoprotein-emitted flash type luminescence signal.
The chAMPion cell line system can monitor the activation of transfected Gαi-coupled receptors, which elicit changes in 3,‘5’-adenosine cyclic monophosphate (cAMP) levels, which in turn is responsible for CNG opening and consequent Ca^2+ influx.
Assay protocol. Experiments were performed in 384 MTP format. Cells were seeded at 10,000 cells/well in 25 μL/well complete growth medium without selection antibiotics in 384-well plates. Twenty-four hours later, cells were assayed for the response to various compounds using the Ca^2+ sensitive photo-protein stably expressed in the cells as readout.
The experiment was performed in a 384-well format according to the following procedure: • 24h after seeding, pre-incubate the cells at room temperature for 1 hour. • Then remove the culture medium. • Load cells with 20 μL/well of Ca^2+ free tyrode buffer+ceolenterazine 5 μM. • Incubate cell plates for 4 hours at RT. • 10 μl/well of 3× concentrated compounds in Ca^2+ free tyrode buffer+Forskolin 9 μM (final Forskolin concentration=3 μM) are applied to the cells (at 10 μl/s). Ten minutes later a second injection is performed: 10 μl/well of Ca^2+ free tyrode buffer+BSA 0.04% (final BSA concentration=0.01%). Twenty minutes later a third injection is performed: 20 μl/well of 10 mM Ca^2+ tyrode buffer (final Ca^2+ concentration was 3.3 mM) and luminescence is recorded for 90 seconds.
Data from FLIPRTETRA measurements are analyzed with the Genedata Screener© software.

The subject of experiment [5] is primary human monocytes. Briefly: Chemotaxis assay, transwell migration of primary human monocytes. Conditions: 4 hours, CellTiter-Glo, FIG. 2. The method, then: Primary Human Monocytes Migrate Along a Chemotactic Gradient towards CX3CR1 Agonists
The chemotaxis assay assesses the CX3CR1-dependent migration of primary human monocytes towards fractalkine and active CX3CR1 agonists. To determine the migration index, monocytes were positively selected from freshly isolated human PBMCs and seeded at 50,000 cells per insert, on the upper chamber of a transwell plate with a pore size of 5 μm. […] Monocytes were allowed to migrate for 4 hours, and subsequently detected in the lower chamber with the CellTiter-Glo Assay, which measures metabolically active cells.

Consider `O=C(NCC1(CN2CCCC2)CCOCC1)c1cc2c(s1)CCCCCC2` [Example 20, N-[[4-(pyrrolidin-1-ylmethyl)oxan-4-yl]methyl]-4,5,6,7,8,9-hexahydrocycloocta[b]thiophene-2-carboxamide], for which the EC50 was found to be 20.9 µM in experiment [1], 19.2 µM in experiment [2], 8.8 µM in experiment [3] and 1.7 µM in experiment [4].
As for `CN(C)CC(C)(C)CN(C)C(=O)c1cc2c(s1)CCCCCC2` [Example 7, N-[3-(dimethylamino)-2,2-dimethylpropyl]-N-methyl-4,5,6,7,8,9-hexahydrocycloocta[b]thiophene-2-carboxamide], the EC50 in experiment [1] came out at 26.1 µM; in experiment [2], 44.5 µM; in experiment [3] it was 15.7 µM; in experiment [4], 9.9 µM.
Regarding `CCN(CC)CC1(CNC(=O)c2cc3c(s2)CCCCCC3)CCCC1` [Example 12, N-[[1-(diethylaminomethyl)cyclopentyl]methyl]-4,5,6,7,8,9-hexahydrocycloocta[b]thiophene-2-carboxamide], the EC50 stood at 9.1 µM in experiment [1], 12.2 µM in experiment [2], 13.3 µM in experiment [3] and 6.2 µM in experiment [4].
For `CN(CCO)CC1(CNC(=O)c2cc3c(s2)CCCCCC3)CCCC1` [Example 17, N-[[1-[[2-hydroxyethyl(methyl)amino]methyl]cyclopentyl]methyl]-4,5,6,7,8,9-hexahydrocycloocta[b]thiophene-2-carboxamide] the same measures were 18.2 µM, 15.7 µM, 11.8 µM and 1.3 µM.
For `CC(C)(CNC(=O)c1cc2c(s1)CCCCCCC2)CN1CCCC1` [Example 24, N-(2,2-dimethyl-3-pyrrolidin-1-ylpropyl)-5,6,7,8,9,10-hexahydro-4H-cyclonona[b]thiophene-2-carboxamide], in that order: 50.9 µM, 59.9 µM, 24.6 µM and 10.6 µM.
In the case of `CCC(CC)(CNC(=O)c1cc2c(s1)CCCCCC2)CN1CCCC1` [Example 9, N-[2-ethyl-2-(pyrrolidin-1-ylmethyl)butyl]-4,5,6,7,8,9-hexahydrocycloocta[b]thiophene-2-carboxamide], the EC50 in experiment [1] is 11.8 µM; in experiment [2] it was 14.9 µM; in experiment [3], 11 µM; in experiment [4] it was 4.1 µM.
For `CN(CCO)CC1(CNC(=O)c2cc3c(s2)CCCCCCC3)CCCC1` [Example 29, N-[[1-[[2-hydroxyethyl(methyl)amino]methyl]cyclopentyl]methyl]-5,6,7,8,9,10-hexahydro-4H-cyclonona[b]thiophene-2-carboxamide], in that order: 46.3 µM, 47 µM, 18.7 µM and 4.8 µM.

B1: fractalkine: recombinant human fractalkine (CX3CL1), large membrane-anchored or secreted cytokine, ligand of CX3CR1 (protein, UniProt P78423 25-397, looked up)
Fractalkine: QHHGVTKCNITCSKMTSKIPVALLIHYQQNQASCGKRAIILETRQHRLFCADPKEQWVKDAMQHLDRQAAALTRNGGTFEKQIGEVKPRTTPAAGGMDESVVLEPEATGESSSLEPTPSSQEAQRALGTSPELPTGVTGSSGTRLPPTPKAQDGGPVGTELFRVPPVSTAATWQSSAPHQPGPSLWAEAKTSEAPSTQDPSTQASTASSPAPEENAPSEGQRVWGQGQSPRPENSLEREEMGPVPAHTDAFQDWGPGSMAHVSVVPVSSEGTPSREPVASGSWTPKAEEPIHATMDPQRLGVLITPVPDAQAATRRQAVGLLAFLGLLFCLGVAMFTYQSLQGCPRKMAGEMAEGLRYIPRSCGSNSYVLVPV
For B1, the “migration of primary human monocytes towards substance (chemotaxis)” value in experiment [5] was “monocytes migrated towards fractalkine”.

The term EC50 denotes the concentration at which the effect is half-maximal.
